pEC50: −log10 of the molar value.
Biological target: T1, human TREM2 (Homo sapiens, UniProt Q9NZC2)
T1 construct: expressed in transfected cells; host or cells: HEK293T
Assay: TREM2 agonist potency by cellular Syk phosphorylation (AlphaLisa) in HEK293T-hTREM2 cells
Type: cell-based
Details: HEK293 cells expressing human TREM2 and DAP12, pSyk AlphaLisa
Procedure: In vitro Measurement of Triggering Receptor Expressed on Myeloid Cells 2 activity using cellular phosphorylation of Spleen Tyrosine Kinase (“Syk”) Assays
Measurement of TREM2 agonist potency was done using a HEK cell line expressing human TREM2 and DAP12 (HEK293T-hTREM2 cells). Binding of small molecules to, and activation of, TREM2 increases the phosphorylation of Syk. The resultant levels of Syk phosphorylation are measured using a commercial AlphaLisa reagent kit. To perform the assay, HEK-hTREM2 cells were plated at 14,000 cells per well in a 384 well plate, in 25 µL of complete growth media and incubated at 37° C., 5% CO2 for 20-24 hours.
Prior to the assay, test compounds were diluted in the 384 well plates in assay buffer and allowed to equilibrate for 30 minutes. Growth media was removed from cell plates by inversion on blotting paper, and 25 μL of test articles in assay buffer was added to cells. Cells were incubated for 45 minutes at room temperature. After 45 minutes, assay buffer was removed and 10 μL of lysis buffer was added. Plates were shaken for 20 minutes at 350 RPM at room temperature. After complete lysis, AlphaLisa reagents were added to the lysate, and fluorescence intensity was measured using a Perkin Elmer Envision plate reader. Intensities were used to generate a standard curve, and % activation was calculated. Curve fitting was performed using Prism v9 software, log(agonist) vs response—variable slope (four parameters), and EC50s were calculated from the curve fit.
The results presented in Table D have been generated with the in vitro assay described above. This assay may be used to test any of the compounds described herein to assess and characterize a compound's ability to act as an agonist of TREM2.

T1 sequence (Q9NZC2 19-230): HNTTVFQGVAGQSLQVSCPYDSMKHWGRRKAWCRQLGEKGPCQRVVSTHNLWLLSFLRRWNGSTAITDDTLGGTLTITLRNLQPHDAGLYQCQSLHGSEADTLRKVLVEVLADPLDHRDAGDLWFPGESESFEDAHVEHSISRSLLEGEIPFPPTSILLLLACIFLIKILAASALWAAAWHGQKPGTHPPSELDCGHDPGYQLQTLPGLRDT
T1 sequence (O43914 22-113 partner): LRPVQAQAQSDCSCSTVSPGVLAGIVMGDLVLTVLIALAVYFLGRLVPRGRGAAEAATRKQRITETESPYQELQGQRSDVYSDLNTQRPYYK

Compound | pEC50 (Table D-2) | pEC50 (Table D)
Cc1cn2c(-c3ccc(Cl)cc3F)cc(N3CCOC(c4cnn(C5CC5)c4)C3)nc2n1 (stereo not shown) [Compound I-26, 4-[5-(4-chloro-2-fluoro-phenyl)-2-methyl-imidazo[1,2-a]pyrimidin-7-yl]-2-(1-cyclopropylpyrazol-4-yl)morpholine] |  | 4.00 to 5.52
CNc1nc2nc(N3C[C@@H](C)O[C@@H](c4cnn(C5CC5)c4)C3)nc(-c3ccc(Cl)cc3F)c2s1 (single isomer, unassigned) [Compound I-94] | 6.30 to 7.30 | 
C[C@@H]1CN(c2nc(-c3ccc(F)cc3F)c3c(n2)nc(N2CCC2)n3C)C[C@H](c2cnn(C3CC3)c2)O1 [Compound I-191, (2S,6R)-4-(8-(azetidin-1-yl)-6-(2,4-difluorophenyl)-7-methyl-7H-purin-2-yl)-2-(1-cyclopropyl-1H-pyrazol-4-yl)-6-methylmorpholine] | 6.30 to 7.30 | 
Cc1nc2nc([C@H]3CCO[C@@H](c4cnn(C5CC5)c4)C3)nc(-c3ccc(F)cc3F)c2o1 [Compound 5, 5-((2R,4S)-2-(1-cyclopropyl-1H-pyrazol-4-yl)tetrahydro-2H-pyran-4-yl)-7-(2,4-difluorophenyl)-2-methyloxazolo[4,5-d]pyrimidine] |  | 5.52 to 6.30
C[C@@H]1CN(c2nc(-c3ccc(F)cc3F)c3sc(N(C)C)nc3n2)C[C@H](c2cnn(C3CC3)c2)O1 (single isomer, unassigned) [Compound I-84] | ≥ 7.30 | 
CO[C@@H]1CCN(c2nc3nc(N4C[C@@H](C)O[C@@H](c5cnn(C6CC6)c5)C4)nc(-c4ccc(F)cc4F)c3s2)C1 [Compound I-221, (2S,6R)-2-(1-cyclopropyl-1H-pyrazol-4-yl)-4-(7-(2,4-difluorophenyl)-2-((R)-3-methoxypyrrolidin-1-yl)thiazolo[4,5-d]pyrimidin-5-yl)-6-methylmorpholine] | ≥ 7.30 | 
CCn1/c(=N\C)sc2c(-c3ccc(Cl)cc3F)nc(N3C[C@@H](C)O[C@@H](c4cnn(C5CC5)c4)C3)nc21 [Compound I-154, (E)-7-(4-chloro-2-fluoro-phenyl)-3-ethyl-N-methyl-5-[(2S,6R)-2-(1-cyclopropylpyrazol-4-yl)-6-methyl-morpholin-4-yl]thiazolo[4,5-d]pyrimidin-2-imine] | 5.52 to 6.30 | 
CN(C)c1nc2nc([C@H]3CCO[C@@H](c4cnn(C5CC5)c4)C3)nc(-c3ccc(C(F)(F)F)cc3F)c2s1 (single isomer, unassigned) [Compound I-134] | 6.30 to 7.30 | 
CO[C@H]1CCN(c2nc3nc([C@H]4CCO[C@@H](c5cnn(C6CC6)c5)C4)nc(-c4ccc(C(F)(F)F)cc4F)c3s2)C1 [Compound I-165, 5-[(2R)-2-(1-cyclopropylpyrazol-4-yl)tetrahydropyran-4-yl]-7-[2-fluoro-4-(trifluoromethyl)phenyl]-2-[(3S)-3-methoxypyrrolidin-1-yl]thiazolo[4,5-d]pyrimidine] | 6.30 to 7.30 | 
C[C@@H]1CN(c2nc(-c3ccc(Cl)cc3F)c3sc(N(C)CC4CC4)nc3n2)C[C@H](c2cnn(C3CC3)c2)O1 [Compound I-109, 7-(4-chloro-2-fluoro-phenyl)-N-(cyclopropylmethyl)-N-methyl-5-[(2S,6R)-2-(1-cyclopropylpyrazol-4-yl)-6-methyl-morpholin-4-yl]thiazolo[4,5-d]pyrimidin-2-amine] | 6.30 to 7.30 | 
CN(C)c1nc2nc(N3CCC(F)(F)[C@H](c4cnn(C5CC5)c4)C3)nc(-c3ccc(C(F)(F)F)cc3F)c2s1 (single isomer, unassigned) [Compound I-200] | 6.30 to 7.30 | 
C[C@@H]1CN(c2nc(-c3ccc(Cl)cc3F)c3sc(N(C)C)nc3n2)C[C@H](c2cnn(C3CC3)c2)O1 (racemic) [Compound I-22, 7-(4-chloro-2-fluoro-phenyl)-N,N-dimethyl-5-[rac-(2S,6R)-2-(1-cyclopropylpyrazol-4-yl)-6-methyl-morpholin-4-yl]thiazolo[4,5-d]pyrimidin-2-amine] | 6.30 to 7.30 | 
CN(C)c1nc2nc(N3CCC(F)(F)[C@@H](c4cnn(C5CC5)c4)C3)nc(-c3ccc(C(F)(F)F)cc3F)c2s1 (single isomer, unassigned) [Compound I-199] | 6.30 to 7.30 | 
C[C@@H]1CN(c2nc(-c3ccc(F)cc3F)c3c(ncn3C)n2)C[C@H](c2cnn(C3CC3)c2)O1 [Compound I-124, (2S,6R)-2-(1-cyclopropyl-1H-pyrazol-4-yl)-4-(6-(2,4-difluorophenyl)-7-methyl-7H-purin-2-yl)-6-methylmorpholine] | 5.52 to 6.30 | 
CO[C@@H]1CCN(c2nc3nc([C@H]4CCO[C@@H](c5cnn(C6CC6)c5)C4)nc(-c4ccc(C(F)(F)F)cc4F)c3s2)C1 [Compound I-164, 5-((2R,4S)-2-(1-cyclopropyl-1H-pyrazol-4-yl)tetrahydro-2H-pyran-4-yl)-7-(2-fluoro-4-(trifluoromethyl)phenyl)-2-((R)-3-methoxypyrrolidin-1-yl)thiazolo[4,5-d]pyrimidine] | 6.30 to 7.30 | 
C[C@@H]1CN(c2nc(-c3ccc(Cl)cc3F)c3sc(N(C)CCO)nc3n2)C[C@H](c2cnn(C3CC3)c2)O1 (single isomer, unassigned) [Compound I-104] | 6.30 to 7.30 | 
CC(C)n1cc2c(-c3ccc(F)cc3F)nc(N3C[C@@H](C)O[C@@H](c4cnn(C5CC5)c4)C3)nc2n1 [Compound I-129, (2S,6R)-2-(1-cyclopropyl-1H-pyrazol-4-yl)-4-(4-(2,4-difluorophenyl)-2-isopropyl-2H-pyrazolo[3,4-d]pyrimidin-6-yl)-6-methylmorpholine] | 6.30 to 7.30 | 

Next, values leading:

pEC50 (Table D-2) | pEC50 (Table D) | Compound
6.30 to 7.30 |  | CN(C)c1nc2nc([C@@H]3CCO[C@@H](c4ccc(=O)n(C)c4)C3)nc(-c3ccc(F)cc3F)c2s1 (racemic) [Compound I-289, 5-[(2R,4R)-4-[7-(2,4-difluorophenyl)-2-(dimethylamino)thiazolo[4,5-d]pyrimidin-5-yl]tetrahydropyran-2-yl]-1-methyl-pyridin-2-one]
6.30 to 7.30 |  | Cc1cc([C@H]2C[C@@H](c3nc(-c4ccc(F)cc4F)c4sc(N(C)C)nc4n3)CCO2)ccn1 [Compound I-268, 7-(2,4-difluorophenyl)-N,N-dimethyl-5-[(2R,4S)-2-(2-methyl-4-pyridyl)tetrahydropyran-4-yl]thiazolo[4,5-d]pyrimidin-2-amine]
≥ 7.30 |  | C[C@@H]1CN(c2nc(-c3ccc(C(F)(F)F)cc3F)c3c(n2)nc(N(C)C)n3C)C[C@H](c2cnn(C3CC3)c2)O1 [Compound I-283, 2-((2S,6R)-2-(1-cyclopropyl-1H-pyrazol-4-yl)-6-methylmorpholino)-6-(2-fluoro-4-(trifluoromethyl)phenyl)-N,N,7-trimethyl-7H-purin-8-amine]
6.30 to 7.30 |  | CN(C)c1nc2nc([C@H]3CCO[C@@H](c4cnn(C5CC5)c4)C3)nc(-c3ccc(F)cc3F)c2n1C [Compound I-303, 2-((2R,4S)-2-(1-cyclopropyl-1H-pyrazol-4-yl)tetrahydro-2H-pyran-4-yl)-6-(2,4-difluorophenyl)-N,N,7-trimethyl-7H-purin-8-amine]
≥ 7.30 |  | CN(C)c1nc2nc(N3CCC(F)(F)C(c4cnn(C5CC5)c4)C3)nc(-c3ccc(F)cc3F)c2s1 (stereo not shown) [Compound I-245, 5-(3-(1-cyclopropyl-1H-pyrazol-4-yl)-4,4-difluoropiperidin-1-yl)-7-(2,4-difluorophenyl)-N,N-dimethylthiazolo[4,5-d]pyrimidin-2-amine]
≥ 7.30 |  | CN(C)c1nc2nc(C3CCOC(c4ccc(=O)n(C)c4)C3)nc(-c3ccc(F)cc3F)c2s1 (racemic) [Compound I-288, 5-[4-[7-(2,4-difluorophenyl)-2-(dimethylamino)thiazolo[4,5-d]pyrimidin-5-yl]tetrahydropyran-2-yl]-1-methyl-pyridin-2-one]
≥ 7.30 |  | Fc1cc(C(F)(F)F)ccc1-c1nc([C@H]2CCO[C@@H](c3cnn(C4CC4)c3)C2)nc2nc(C3CC3)sc12 (single isomer, unassigned) [Compound I-279]
6.30 to 7.30 |  | Cc1cc([C@H]2C[C@H](c3nc(-c4ccc(F)cc4F)c4sc(N(C)C)nc4n3)CCO2)ccn1 [Compound I-269, 7-(2,4-difluorophenyl)-N,N-dimethyl-5-[(2R,4R)-2-(2-methyl-4-pyridyl)tetrahydropyran-4-yl]thiazolo[4,5-d]pyrimidin-2-amine]
6.30 to 7.30 |  | CS(=O)(=O)c1nc2nc([C@H]3CCO[C@@H](c4cnn(C5CC5)c4)C3)nc(-c3ccc(C(F)(F)F)cc3N3CCC3)c2s1 [Compound I-253, 7-[2-(azetidin-1-yl)-4-(trifluoromethyl)phenyl]-5-[(2R,4S)-2-(1-cyclopropylpyrazol-4-yl)tetrahydropyran-4-yl]-2-methylsulfonyl-thiazolo[4,5-d]pyrimidine]
≥ 7.30 |  | Fc1cc(C(F)(F)F)ccc1-c1nc([C@H]2CCO[C@@H](c3cnn(C4CC4)c3)C2)nc2nc(N3CCC3)sc12 (single isomer, unassigned) [Compound I-249]
≥ 7.30 |  | C[C@@H]1CN(c2nc(-c3ccc(C(F)(F)F)cc3F)c3sc(N(C)C)nc3n2)C[C@H](c2cnn(C3CC3)c2)O1 [Compound I-258, 5-[(2S,6R)-2-(1-cyclopropylpyrazol-4-yl)-6-methyl-morpholin-4-yl]-7-[2-fluoro-4-(trifluoromethyl)phenyl]-N,N-dimethyl-thiazolo[4,5-d]pyrimidin-2-amine]
